Reference: US20230151003A1, “COMPOUNDS AND METHODS OF USE” (Exelixis, Inc., priority 2020, published 2023)

How the values were obtained:
KDR = KDR (Homo sapiens, UniProt P35968); experiment: KDR autophosphorylation ELISA in HUVEC cells; format: cell-based; design: endogenous in cells; host or cells: HUVEC (Lonza #C2519A); conditions: Table 3 Cellular Activities, VEGF165-stimulated, phospho-KDR ELISA
In short: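 Inhibition of VEGF165-induced KDR phosphorylation was determined in serum-starved HUVEC after 1 h compound pretreatment and 5 min stimulation with 100 ng/mL VEGF165. Lysate phospho-KDR was measured by ELISA; IC50 values came from a 4-parameter logistic fit of 8-point curves.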

AXL = molecular target: T1, AXL (Homo sapiens, UniProt P30530); experiment: AXL autophosphorylation ELISA in A-172 cells; format: cell-based; conditions: Table 3 Cellular Activities, Gas6-stimulated, phospho-AXL ELISA
T1 construct: endogenous in cells; host or cells: A-172 glioblastoma cells (ATCC #CRL-1620)
T1 sequence (P30530 26-894): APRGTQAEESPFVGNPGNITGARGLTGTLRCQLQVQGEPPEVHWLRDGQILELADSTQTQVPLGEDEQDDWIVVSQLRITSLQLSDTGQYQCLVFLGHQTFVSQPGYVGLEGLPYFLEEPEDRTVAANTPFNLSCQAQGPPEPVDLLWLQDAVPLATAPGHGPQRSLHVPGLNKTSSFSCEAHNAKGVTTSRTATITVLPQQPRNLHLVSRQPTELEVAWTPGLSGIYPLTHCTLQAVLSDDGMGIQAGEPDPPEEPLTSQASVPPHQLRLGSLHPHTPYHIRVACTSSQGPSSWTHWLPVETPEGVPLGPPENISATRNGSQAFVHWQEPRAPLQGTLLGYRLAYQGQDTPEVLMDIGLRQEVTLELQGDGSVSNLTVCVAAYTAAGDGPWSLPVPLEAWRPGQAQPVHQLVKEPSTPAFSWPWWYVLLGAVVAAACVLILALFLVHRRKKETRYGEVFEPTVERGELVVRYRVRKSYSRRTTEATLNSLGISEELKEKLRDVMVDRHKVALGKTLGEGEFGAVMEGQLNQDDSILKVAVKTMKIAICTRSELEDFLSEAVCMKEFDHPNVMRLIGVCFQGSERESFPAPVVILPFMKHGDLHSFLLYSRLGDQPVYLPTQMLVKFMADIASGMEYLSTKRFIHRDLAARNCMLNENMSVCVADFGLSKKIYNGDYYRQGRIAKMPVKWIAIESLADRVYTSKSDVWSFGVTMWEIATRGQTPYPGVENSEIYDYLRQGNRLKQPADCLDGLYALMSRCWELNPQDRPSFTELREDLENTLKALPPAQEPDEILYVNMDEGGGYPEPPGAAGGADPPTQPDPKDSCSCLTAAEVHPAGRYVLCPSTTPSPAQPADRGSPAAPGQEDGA
In short: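 A-172 glioblastoma cells serum-starved 24 h, treated 1 h with compounds (8-point dose curve, 0.3% DMSO), then stimulated with 1 μg/mL Gas6 for 15 min. Lysate phospho-AXL quantified by ELISA against a standard; IC50 from 4-parameter logistic fit, normalised to DMSO and reference-inhibitor controls.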

KDR, sequence (P35968 20-1356): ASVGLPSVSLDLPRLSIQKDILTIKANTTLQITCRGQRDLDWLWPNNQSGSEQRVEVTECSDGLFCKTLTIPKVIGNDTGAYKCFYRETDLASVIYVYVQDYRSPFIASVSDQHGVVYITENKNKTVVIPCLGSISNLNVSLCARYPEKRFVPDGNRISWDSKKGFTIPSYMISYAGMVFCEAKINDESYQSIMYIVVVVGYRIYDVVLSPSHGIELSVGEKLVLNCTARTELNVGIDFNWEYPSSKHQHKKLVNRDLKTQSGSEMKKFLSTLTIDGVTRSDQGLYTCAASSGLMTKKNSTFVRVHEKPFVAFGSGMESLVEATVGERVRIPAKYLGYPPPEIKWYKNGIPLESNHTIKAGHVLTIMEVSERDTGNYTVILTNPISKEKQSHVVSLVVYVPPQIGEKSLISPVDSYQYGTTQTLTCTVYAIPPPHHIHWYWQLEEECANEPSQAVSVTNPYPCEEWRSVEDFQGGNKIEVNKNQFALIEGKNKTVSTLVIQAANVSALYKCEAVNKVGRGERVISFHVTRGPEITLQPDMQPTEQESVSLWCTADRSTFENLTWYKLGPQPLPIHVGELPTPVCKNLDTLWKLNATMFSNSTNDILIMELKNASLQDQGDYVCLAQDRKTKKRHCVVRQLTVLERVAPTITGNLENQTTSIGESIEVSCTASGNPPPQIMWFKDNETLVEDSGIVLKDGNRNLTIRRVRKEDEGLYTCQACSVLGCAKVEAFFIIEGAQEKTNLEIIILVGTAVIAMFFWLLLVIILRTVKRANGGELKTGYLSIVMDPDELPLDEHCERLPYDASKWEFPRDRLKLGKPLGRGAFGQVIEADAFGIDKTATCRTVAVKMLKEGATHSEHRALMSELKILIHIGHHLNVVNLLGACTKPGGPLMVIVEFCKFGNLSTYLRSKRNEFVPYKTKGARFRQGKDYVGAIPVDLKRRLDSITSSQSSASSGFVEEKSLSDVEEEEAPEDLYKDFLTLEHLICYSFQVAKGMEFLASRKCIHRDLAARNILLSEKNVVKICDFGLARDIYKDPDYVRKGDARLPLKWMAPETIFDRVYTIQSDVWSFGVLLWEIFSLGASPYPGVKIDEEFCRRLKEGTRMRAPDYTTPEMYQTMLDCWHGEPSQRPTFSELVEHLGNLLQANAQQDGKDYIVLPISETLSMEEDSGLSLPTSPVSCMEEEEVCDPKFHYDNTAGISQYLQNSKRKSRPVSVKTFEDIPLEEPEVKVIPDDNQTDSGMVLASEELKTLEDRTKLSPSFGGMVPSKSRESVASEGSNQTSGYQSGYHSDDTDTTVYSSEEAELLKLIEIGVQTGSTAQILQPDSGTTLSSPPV

## COc1cnc2c(Oc3ccc(NC(=O)c4cn(CCF)c(C)c(-c5cccs5)c4=O)cc3F)ccnc2c1 [Compound 331, 1-(2-Fluoroethyl)-N-[3-fluoro-4-[(7-methoxy-1,5-naphthyridin-4-yl)oxy]phenyl]-6-methyl-4-oxo-5-thiophen-2-ylpyridine-3-carboxamide]
KDR
  IC50: 300 to 1000 nM
AXL
  IC50: ≤ 100 nM

## COc1cc2nccc(Oc3ccc(NC(=O)c4cnc(C)c(-c5cc(C)cs5)c4O)cc3F)c2nc1OC [Compound 91, N-[4-[(6,7-Dimethoxy-1,5-naphthyridin-4-yl)oxy]-3-fluoro-phenyl]-4-hydroxy-6-methyl-5-(4-methyl-2-thienyl) pyridine-3-carboxamide]
KDR
  IC50: ≤ 100 nM
AXL
  IC50: ≤ 100 nM

## COc1cc2nccc(Oc3ccc(NC(=O)c4cnc(C)c(-c5nccs5)c4O)cc3F)c2nc1OC [Compound 143, N-[4-[(6,7-Dimethoxy-1,5-naphthyridin-4-yl)oxy]-3-fluorophenyl]-4-hydroxy-6-methyl-5-(1,3-thiazol-2-yl)pyridine-3-carboxamide]
KDR
  IC50: ≤ 100 nM
AXL
  IC50: ≤ 100 nM

## COc1cc2nccc(Oc3ccc(NC(=O)c4cnc(C)c(-c5cscn5)c4O)cc3F)c2nc1OC [Compound 142, N-[4-[(6,7-Dimethoxy-1,5-naphthyridin-4-yl)oxy]-3-fluorophenyl]-4-hydroxy-6-methyl-5-(1,3-thiazol-4-yl)pyridine-3-carboxamide]
KDR
  IC50: ≤ 100 nM
AXL
  IC50: ≤ 100 nM

## COc1cnc2c(Oc3ccc(NC(=O)c4cn(CCF)c(C)c(-c5ccoc5)c4=O)cc3F)ccnc2c1 [Compound 334, 1-(2-Fluoroethyl)-N-[3-fluoro-4-[(7-methoxy-1,5-naphthyridin-4-yl)oxy]phenyl]-5-(furan-3-yl)-6-methyl-4-oxopyridine-3-carboxamide]
KDR
  IC50: 300 to 1000 nM
AXL
  IC50: ≤ 100 nM

## COc1cnc2c(Oc3ccc(NC(=O)c4c(C)n(C)c(C)c(-c5cccs5)c4=O)cc3F)ccnc2c1 [Compound 166, N-[3-Fluoro-4-[(7-methoxy-1,5-naphthyridin-4-yl)oxy]phenyl]-1,2,6-trimethyl-4-oxo-5-thiophen-2-ylpyridine-3-carboxamide]
KDR
  IC50: 300 to 1000 nM
AXL
  IC50: ≤ 100 nM

## COc1cc2nccc(Oc3ccc(NC(=O)c4c(C)n(C)c(C)c(-c5cccs5)c4=O)cc3)c2nc1OC [Compound 167, N-[4-[(6,7-Dimethoxy-1,5-naphthyridin-4-yl)oxy]phenyl]-1,2,6-trimethyl-4-oxo-5-thiophen-2-ylpyridine-3-carboxamide]
KDR
  IC50: 300 to 1000 nM
AXL
  IC50: ≤ 100 nM

## COc1cc2nccc(Oc3ccc(NC(=O)c4c(C)ncc(-c5cc(C)cs5)c4O)cc3F)c2nc1OC [Compound 125, N-[4-[(6,7-Dimethoxy-1,5-naphthyridin-4-yl)oxy]-3-fluorophenyl]-4-hydroxy-2-methyl-5-(4-methylthiophen-2-yl)pyridine-3-carboxamide]
KDR
  IC50: ≤ 100 nM
AXL
  IC50: ≤ 100 nM

## COc1ccc2nccc(Oc3ccc(NC(=O)c4cnc(C)c(-c5cccs5)c4O)cc3F)c2n1 [Compound 128, N-[3-Fluoro-4-[(6-methoxy-1,5-naphthyridin-4-yl)oxy]phenyl]-4-hydroxy-6-methyl-5-thiophen-2-ylpyridine-3-carboxamide]
KDR
  IC50: ≤ 100 nM
AXL
  IC50: ≤ 100 nM

## COc1cc2nccc(Oc3ccc(NC(=O)c4c(C)ncc(-c5sccc5C)c4O)cc3F)c2nc1OC [Compound 126, N-[4-[(6,7-Dimethoxy-1,5-naphthyridin-4-yl)oxy]-3-fluorophenyl]-4-hydroxy-2-methyl-5-(3-methylthiophen-2-yl)pyridine-3-carboxamide]
KDR
  IC50: ≤ 100 nM
AXL
  IC50: ≤ 100 nM

## COc1ccc2nccc(Oc3ccc(NC(=O)c4cnc(C)c(-c5ccco5)c4O)cc3F)c2n1 [Compound 118, N-[3-Fluoro-4-[(6-methoxy-1,5-naphthyridin-4-yl)oxy]phenyl]-5-(furan-2-yl)-4-hydroxy-6-methylpyridine-3-carboxamide]
KDR
  IC50: ≤ 100 nM
AXL
  IC50: ≤ 100 nM

## COc1cnc2c(Oc3ccc(NC(=O)c4cnc(C)c(-c5cccs5)c4O)cc3F)ccnc2c1 [Compound 100, N-[3-Fluoro-4-[(7-methoxy-1,5-naphthyridin-4-yl)oxy]phenyl]-4-hydroxy-6-methyl-5-(2-thienyl)pyridine-3-carboxamide]
KDR
  IC50: ≤ 100 nM
AXL
  IC50: ≤ 100 nM

## COc1cnc2c(Oc3ccc(NC(=O)c4cn(CCF)c(C)c(-c5ccc(C)s5)c4=O)cc3F)ccnc2c1 [Compound 329, 1-(2-Fluoroethyl)-N-[3-fluoro-4-[(7-methoxy-1,5-naphthyridin-4-yl)oxy]phenyl]-6-methyl-5-(5-methylthiophen-2-yl)-4-oxopyridine-3-carboxamide]
KDR
  IC50: 300 to 1000 nM
AXL
  IC50: ≤ 100 nM

## COc1cc2nccc(Oc3ccc(NC(=O)c4cnc(C)c(-c5cnoc5)c4O)cc3F)c2nc1OC [Compound 140, N-[4-[(6,7-Dimethoxy-1,5-naphthyridin-4-yl)oxy]-3-fluorophenyl]-4-hydroxy-6-methyl-5-(1,2-oxazol-4-yl)pyridine-3-carboxamide]
KDR
  IC50: ≤ 100 nM
AXL
  IC50: ≤ 100 nM

## COc1cc2nccc(Oc3ccc(NC(=O)c4c(C)nc(C)c(-c5cccs5)c4O)cc3F)c2nc1OC [Compound 107]
KDR
  IC50: ≤ 100 nM
AXL
  IC50: ≤ 100 nM

## COc1cc2nccc(Oc3ccc(NC(=O)c4c(C)nc(C)c(-c5ccc(C)o5)c4O)cc3F)c2nc1OC [Compound 110, N-[4-[(6,7-Dimethoxy-1,5-naphthyridin-4-yl)oxy]-3-fluoro-phenyl]-4-hydroxy-2,6-dimethyl-5-(5-methyl-2-furyl)pyridine-3-carboxamide]
KDR
  IC50: ≤ 100 nM
AXL
  IC50: ≤ 100 nM

## COc1cc2nccc(Oc3ccc(NC(=O)c4c(C)nc(C)c(-c5cc(C)nn5C)c4O)cc3F)c2nc1OC [Compound 109, N-[4-[(6,7-Dimethoxy-1,5-naphthyridin-4-yl)oxy]-3-fluoro-phenyl]-5-(2,5-dimethylpyrazol-3-yl)-4-hydroxy-2,6-dimethyl-pyridine-3-carboxamide]
KDR
  IC50: ≤ 100 nM
AXL
  IC50: ≤ 100 nM

## COc1cc2nccc(Oc3ccc(NC(=O)c4c(C)nc(C)c(-c5cc(C(F)(F)F)nn5C)c4O)cc3F)c2nc1OC [Compound 138]
KDR
  IC50: ≤ 100 nM
AXL
  IC50: ≤ 100 nM

## COc1cc2nccc(Oc3ccc(NC(=O)c4cnc(C)c(-c5ccco5)c4O)cc3F)c2nc1OC [Compound 89, N-[4-[(6,7-Dimethoxy-1,5-naphthyridin-4-yl)oxy]-3-fluorophenyl]-5-(furan-2-yl)-4-hydroxy-6-methylpyridine-3-carboxamide]
KDR
  IC50: ≤ 100 nM
AXL
  IC50: ≤ 100 nM

## COc1cc2nccc(Oc3ccc(NC(=O)c4cnc(C)c(-c5sccc5C)c4O)cc3F)c2nc1OC [Compound 103, N-[4-[(6,7-Dimethoxy-1,5-naphthyridin-4-yl)oxy]-3-fluoro-phenyl]-4-hydroxy-6-methyl-5-(3-methyl-2-thienyl) pyridine-3-carboxamide]
KDR
  IC50: ≤ 100 nM
AXL
  IC50: ≤ 100 nM

## COc1cc2nccc(Oc3ccc(NC(=O)c4cc(Br)c(C)n(-c5ccc(F)cn5)c4=O)cc3F)c2nc1OC [Compound 55, 5-Bromo-N-[4-[(6,7-dimethoxy-1,5-naphthyridin-4-yl)oxy]-3-fluorophenyl]-1-(5-fluoropyridin-2-yl)-6-methyl-2-oxopyridine-3-carboxamide]
KDR
  IC50: 300 to 1000 nM
AXL
  IC50: ≤ 100 nM

## COc1cc2nccc(Oc3ccc(NC(=O)c4c(C)nc(C)c(-c5ccco5)c4O)cc3F)c2nc1OC [Compound 135, N-[4-[(6,7-Dimethoxy-1,5-naphthyridin-4-yl)oxy]-3-fluorophenyl]-5-(furan-2-yl)-4-hydroxy-2,6-dimethylpyridine-3-carboxamide]
KDR
  IC50: ≤ 100 nM
AXL
  IC50: ≤ 100 nM

## COc1cc2nccc(Oc3ccc(NC(=O)c4c(C)ncc(-c5ccsc5)c4O)cc3F)c2nc1OC [Compound 127, N-[4-[(6,7-Dimethoxy-1,5-naphthyridin-4-yl)oxy]-3-fluorophenyl]-4-hydroxy-2-methyl-5-thiophen-3-ylpyridine-3-carboxamide]
KDR
  IC50: ≤ 100 nM
AXL
  IC50: ≤ 100 nM
